Measured values taken from patent US20070059310A1, “Therapeutic combination compositions and methods of using same” (priority 2005, published 2007).

Test: Aggregate number from ratio of molecular weights at pH 7 and pH 13 (GPC fractions)
Assay type: physicochemical
Description: The aggregate number of a β-glucan sample under a specified set of conditions can be determined by determining the average molecular weight of the polymer under those conditions. The β-glucan is then denatured, that is, subjected to conditions which separate any aggregates into their component single polymer chains. The average molecular weight of the denatured polymer is then determined. The ratio of the molecular weights of the aggregated and denatured forms of the polymer is the aggregate number. A typical β-glucan composition includes molecules having a range of chain lengths, conformations and molecular weights. Thus, the measured aggregate number of a β-glucan composition is the mass average aggregate number across the entire range of β-glucan molecules within the composition. […] For example, a measured aggregate number of about 6 or more is characteristic of a composition in which the β-glucan is substantially in the triple helix aggregate conformation. […]
The molecular weights of fractions A and C were determined at 25° C. at both pH 7 and pH 13, and at 37° C. at pH 7. […] Thus, at a given temperature the ratio of the molecular weights determined at pH 7 and pH 13 is the aggregate number at pH 7 at that temperature. […]

aggregate number (pH 7, 25° C.): about 3
aggregate number (pH 7, 37° C.): about 3
Substance: scleroglucan
